Measurements reported in article PMC7842235 (Journal of proteome research, 2020).

Target: T1, Tryp-N (Thermochaetoides thermophila, UniProt G0SEK4)
T1 sequence (G0SEK4 68-292): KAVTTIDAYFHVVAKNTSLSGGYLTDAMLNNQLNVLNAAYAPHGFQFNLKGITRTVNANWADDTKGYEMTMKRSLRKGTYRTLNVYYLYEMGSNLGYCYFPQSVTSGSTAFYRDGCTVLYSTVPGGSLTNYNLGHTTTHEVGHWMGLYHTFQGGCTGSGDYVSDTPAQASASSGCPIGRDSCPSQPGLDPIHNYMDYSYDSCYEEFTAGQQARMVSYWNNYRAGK
Test: protease activity assay, probably FITC-labeled casein
Assay type: biochemical

An IC50 of ~500 µM was found for N=C(N)c1ccccc1 [benzamidine] in this work.
